Data as given in US5660976A, “Method for preserving a liver by perfusion with or storage in a solution containing ascorbyl tocopheryl phosphodiester” (Senju Pharmaceutical Co., Ltd., priority 1994, dated 1997).

Test: Acute toxicity (LD50) in rats
Settings: rat, in vivo
Experimental: The compound for use as the active ingredient in the hepatic graft preservative composition and hepatic graft preserving method of this invention is a very safe substance with an extremely low toxic potential and, as such, can be used with advantage for the purposes of this invention. [e.g. the LD50 values of L-ascorbyl DL-α-tocopheryl phosphate potassium (hereinafter referred to briefly as EPC-K)≥5 g/kg p.o. (rats) and≥100 mg/kg i.v. (rats)].

Cc1c(C)c2c(c(C)c1OP(=O)(O)OC1=C(O)[C@@H]([C@@H](O)CO)OC1=O)CCC(C)(CCCC(C)CCCC(C)CCCC(C)C)O2 (mixture of isomers) [EPC-K, L-Ascorbyl DL-α-tocopheryl phosphate potassium]
LD50 (iv, i.v. (rats)): ≥ 100 mg/kg
LD50 (po, p.o. (rats)): ≥ 5000 mg/kg
